Tests used:
Thymidine kinase [1] = biological target: T1, Thymidine kinase (Human herpesvirus 1 (strain SC16) (HHV-1) (Human herpes simplex virus1), UniProt P06479); experiment: Inhibitory activity against HSV-1 thymidine kinase isolated from HeLa cells; format: cell-free; details: for IC50: read-out: Log 1/IC50 (converted)
T1 sequence (P06479 whole entry): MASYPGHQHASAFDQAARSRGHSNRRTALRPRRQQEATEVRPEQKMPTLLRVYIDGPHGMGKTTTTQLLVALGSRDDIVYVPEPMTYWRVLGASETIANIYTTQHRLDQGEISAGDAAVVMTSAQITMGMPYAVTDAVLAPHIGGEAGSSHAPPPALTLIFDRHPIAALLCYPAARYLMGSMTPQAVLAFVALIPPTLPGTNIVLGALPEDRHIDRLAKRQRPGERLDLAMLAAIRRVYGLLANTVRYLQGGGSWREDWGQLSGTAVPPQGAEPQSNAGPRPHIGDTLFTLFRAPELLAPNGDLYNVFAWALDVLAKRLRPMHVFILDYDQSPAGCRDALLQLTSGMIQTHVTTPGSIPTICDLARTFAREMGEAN

Thymidine kinase [2] = biological target: T2, Thymidine kinase (Human herpesvirus 2, UniProt Q6L709); experiment: Inhibitory activity against HSV-2 thymidine kinase isolated from HeLa cells; format: cell-free; details: read-out: Log 1/IC50 (converted)
T2 sequence (Q6L709 whole entry): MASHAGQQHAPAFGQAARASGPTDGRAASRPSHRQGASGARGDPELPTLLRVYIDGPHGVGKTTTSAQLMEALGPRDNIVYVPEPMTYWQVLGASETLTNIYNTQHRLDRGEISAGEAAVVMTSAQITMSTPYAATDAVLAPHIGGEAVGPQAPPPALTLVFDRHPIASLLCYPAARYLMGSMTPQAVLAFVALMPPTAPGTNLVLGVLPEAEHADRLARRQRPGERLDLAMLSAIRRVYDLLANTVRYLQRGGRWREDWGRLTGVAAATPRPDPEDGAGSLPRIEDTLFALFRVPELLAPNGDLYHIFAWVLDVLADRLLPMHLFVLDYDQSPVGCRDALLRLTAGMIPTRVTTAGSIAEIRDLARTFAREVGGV

Row | SMILES | IC50 (Thymidine kinase [1]) | IC50 (Thymidine kinase [2]) | Log 1/IC50 (Thymidine kinase [1]; hela)
1 | Oc1[nH]c(Nc2cccc(CCl)c2)nc2ncnc1-2 | 1.41 µM | 1.35 µM | 
2 | Oc1[nH]c(Nc2ccc(Cl)cc2)nc2ncnc1-2 | 100 µM | 50.1 µM | 
3 | CCCc1ccc(Nc2nc(O)c3[nH]cnc3n2)cc1 | 30.2 µM | 46.8 µM | 
4 | NCc1cccc(Nc2nc(O)c3[nH]cnc3n2)c1 | 30.2 µM | 20 µM | 
5 | [N-]=[N+]=NCc1cccc(Nc2nc3ncnc-3c(O)[nH]2)c1 | 0.794 µM | 1.51 µM | 
6 | Oc1[nH]c(Nc2cccc(CBr)c2)nc2ncnc1-2 | 1 µM | 1.2 µM | 
7 | Oc1[nH]c(Nc2cccc(I)c2)nc2ncnc1-2 | 1.1 µM | 1.1 µM | 
8 | CC(C)c1ccc(Nc2nc(O)c3[nH]cnc3n2)cc1 | 200 µM | 100 µM | 
9 | CCCCc1ccc(Nc2nc(O)c3[nH]cnc3n2)cc1 |  | 50.1 µM | 4.3
10 | O=c1nc(Nc2cccc(CO)c2)[nH]c2nc[nH]c12 | 25.1 µM | 20 µM | 
11 | Oc1[nH]c(Nc2ccc(F)c(Cl)c2)nc2ncnc1-2 | 7.94 µM | 2.51 µM | 
12 | Oc1[nH]c(Nc2ccc(F)cc2)nc2ncnc1-2 | 302 µM | 257 µM | 
13 | O=c1[nH]c(Nc2ccc(F)c(F)c2)nc2nc[nH]c12 | 50.1 µM | 2.19 µM | 
14 | Oc1[nH]c(Nc2ccc(Cl)c(C(F)(F)F)c2)nc2ncnc1-2 | 20 µM | 5.01 µM | 
15 | CCCCc1ccc(Nc2nc(O)c3[nH]cnc3n2)cc1C | 39.8 µM |  | 
16 | CCCCCc1ccc(Nc2nc(O)c3[nH]cnc3n2)cc1 | 501 µM | 251 µM | 
17 | CCc1cccc(Nc2nc3nc[nH]c3c(=O)[nH]2)c1 | 2.51 µM | 3.98 µM | 
18 | Cc1ccc(Nc2nc3nc[nH]c3c(=O)[nH]2)cc1 | 50.1 µM | 6.03 µM | 
19 | O=c1[nH]c(Nc2cccc(C(F)(F)F)c2)nc2nc[nH]c12 | 0.151 µM | 0.1 µM | 
20 | N#Cc1cccc(Nc2nc3ncnc-3c(O)[nH]2)c1 | 5.01 µM | 0.398 µM | 
21 | Oc1[nH]c(Nc2cccc(Br)c2)nc2ncnc1-2 | 1.51 µM | 0.603 µM | 
22 | Oc1[nH]c(Nc2ccc(I)cc2)nc2ncnc1-2 | 39.8 µM | 8.91 µM | 
23 | Oc1[nH]c(Nc2cccc(Cl)c2)nc2ncnc1-2 | 1.51 µM | 0.347 µM | 
24 | Oc1[nH]c(Nc2ccc(Br)cc2)nc2ncnc1-2 | 1 µM | 0.603 µM | 
25 | O=c1[nH]c(Nc2ccc(O)cc2)nc2nc[nH]c12 | 141 µM | 20 µM | 
26 | Oc1[nH]c(Nc2ccc3ccccc3c2)nc2ncnc1-2 | 39.8 µM | 10 µM | 
27 | Oc1[nH]c(Nc2ccc(C(F)(F)F)cc2)nc2ncnc1-2 | 30.2 µM | 39.8 µM | 
28 | Oc1[nH]c(Nc2ccc(Br)c(Br)c2)nc2ncnc1-2 | 3.02 µM | 1.29 µM | 
29 | Cc1ccc(Nc2nc(O)c3[nH]cnc3n2)cc1CO | 269 µM | 200 µM | 

— ChEMBL document CHEMBL1125514, “Quantitative structure-activity relationships of N2-phenylguanines as inhibitors of herpes simplex virus thymidine kinases” (J Med Chem, 1992)
